From ChEMBL document CHEMBL5518218, “Discovery of Novel PD-L1 Small-Molecular Inhibitors with Potent In Vivo Anti-tumor Immune Activity” (J Med Chem, 2024)
≈ marks a conversion by molar mass, not a printed value. Calls of active or inactive are those of the source. No cut-off for these calls is given here.

How the values were obtained:
[1] = target: T1, Programmed cell death protein 1/Programmed cell death 1 ligand 1 (Homo sapiens, UniProt Q9NZQ7); experiment: Inhibition of PD-1/PD-L1 interaction (unknown origin) incubated for 15 min by HTRF assay; type: protein-complex assay
T1 sequence (Q15116 whole entry): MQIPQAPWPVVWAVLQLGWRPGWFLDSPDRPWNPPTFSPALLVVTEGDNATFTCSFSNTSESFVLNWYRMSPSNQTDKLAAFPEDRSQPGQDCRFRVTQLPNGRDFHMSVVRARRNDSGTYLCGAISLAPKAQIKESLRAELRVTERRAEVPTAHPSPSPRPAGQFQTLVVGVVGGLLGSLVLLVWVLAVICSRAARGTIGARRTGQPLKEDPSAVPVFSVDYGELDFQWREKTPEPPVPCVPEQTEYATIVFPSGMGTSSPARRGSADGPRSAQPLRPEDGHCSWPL
T1 sequence (Q9NZQ7 whole entry): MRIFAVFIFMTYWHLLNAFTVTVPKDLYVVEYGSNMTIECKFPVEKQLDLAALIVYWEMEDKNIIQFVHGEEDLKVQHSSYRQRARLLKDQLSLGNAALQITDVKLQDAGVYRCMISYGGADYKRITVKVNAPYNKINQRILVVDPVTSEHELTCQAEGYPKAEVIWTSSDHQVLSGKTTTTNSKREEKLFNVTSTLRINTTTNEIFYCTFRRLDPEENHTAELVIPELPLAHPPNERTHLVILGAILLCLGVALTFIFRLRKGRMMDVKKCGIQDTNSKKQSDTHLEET

CHO-K1 [2] = experiment: Cytotoxicity against […] cells expressing PD-L1 assessed as reduction in cell viability at 50 uM incubated for 6 hrs by CCK-8 assay; type: toxicity, cell-based, Cricetulus griseus; settings: chinese hamster, cho-k1, 6 h
[3] = target: T1, Programmed cell death protein 1/Programmed cell death 1 ligand 1; experiment: (§1) Inhibition of interaction of human PD-1 expressed in Jurkat T cells co-transfected with NFAT/human PD-L1 expressed in CHO-K1 cells co-expressing aAPC preincubated with CHO-K1 cells followed by Jurkat cell addition and measured after 6 hrs by automated microplate spectrophotometer analysis; type: cell-based
[4] = target: T2, Programmed cell death protein 1/Programmed cell death 1 ligand 1 (Homo sapiens, UniProt Q15116+Q9NZQ7); experiment: as §1, with “aAPC assessed as maximum relative light unit” for “aAPC”; type: cell-based
T2 sequence (Q15116 whole entry): as the sequence (Q15116 whole entry) above
T2 sequence (Q9NZQ7 whole entry): as the sequence (Q9NZQ7 whole entry) above

[5] = target: Programmed cell death protein 1 (Homo sapiens) (UniProt Q15116); experiment: Inhibition of human PD-1 expressed in Jurkat T cells co-transfected with NFAT by automated microplate spectrophotometer analysis; type: cell-based
Programmed cell death protein 1 (Homo sapiens), sequence (Q15116 whole entry): as the sequence (Q15116 whole entry) above

Jurkat = experiment: Cytotoxicity against human Jurkat cells expressing PD-1 assessed as reduction in cell viability at 50 uM incubated for 6 hrs by CCK-8 assay; type: functional, cell-based
[6] = target: Programmed cell death 1 ligand 1 (Homo sapiens, UniProt Q9NZQ7); experiment: Binding affinity to his-tagged human PD-L1 assessed as dissociation constant by SPR analysis
Programmed cell death 1 ligand 1 (Homo sapiens, UniProt Q9NZQ7), sequence (Q9NZQ7 whole entry): as the sequence (Q9NZQ7 whole entry) above

MC-38 [7] = experiment: Antitumor activity against mouse MC38 cells implanted in C57BL/6J mouse assessed as tumor growth inhibition at 5 mg/kg, po measured for 20 days; type: functional; settings: MC-38, 480 h, time 20 day, read-out: TGI
[8] = Mutagenicity in Salmonella typhimurium TA100 by mini-Ames test; type: toxicity; settings: salmonella enterica subsp. enterica serovar typhimurium
[9] = Stability in human liver microsomes assessed as half life; type: ADME, Microsome
[10] = Lipophilicity, log D of the compound at pH 7.4; type: physicochemical; settings: buffer
CHO-K1 [11] = experiment: Reduction in cell surface PD-L1 expression in CHO-K1 cells expressing aAPC incubated for 24 hrs by flow cytometry analysis; type: functional, cell-based; settings: Cricetulus griseus, dose 0.1-10 µM
[12] = Cmax in Sprague-Dawley rat at 50 mg/kg, po measured upto 24 hrs by LC-MS/MS analysis; type: ADME, organism-based; settings: in vivo
[13] = AUC (0 to t) in Sprague-Dawley rat at 50 mg/kg, po measured upto 24 hrs by LC-MS/MS analysis; type: ADME, organism-based; settings: in vivo
CHO-K1 [14] = experiment: Induction of PD-L1 internalization in CHO-K1 cells assessed as increase in PD-L1 concentration in nucleus at 10 uM incubated for 12 hrs by DIL-staining based confocal microscopic analysis analysis; type: functional, cell-based; settings: Cricetulus griseus
PBMC [15] = experiment: Induction of antitumor immunity in human PBMC cells assessed as increase in IFN-gamma expression at 0.1 to 10 uM incubated for 12 hrs by ELISA analysis; type: functional, cell-based; settings: dose 0.1-10 µM
[16] = Water solubility of the compound; type: physicochemical
[17] = target: Programmed cell death 1 ligand 1 (Mus musculus, UniProt Q9EP73); experiment: Binding affinity to his-tagged mouse PD-L1 assessed as dissociation constant by SPR analysis
Programmed cell death 1 ligand 1 (Mus musculus, UniProt Q9EP73), sequence (Q9EP73 whole entry): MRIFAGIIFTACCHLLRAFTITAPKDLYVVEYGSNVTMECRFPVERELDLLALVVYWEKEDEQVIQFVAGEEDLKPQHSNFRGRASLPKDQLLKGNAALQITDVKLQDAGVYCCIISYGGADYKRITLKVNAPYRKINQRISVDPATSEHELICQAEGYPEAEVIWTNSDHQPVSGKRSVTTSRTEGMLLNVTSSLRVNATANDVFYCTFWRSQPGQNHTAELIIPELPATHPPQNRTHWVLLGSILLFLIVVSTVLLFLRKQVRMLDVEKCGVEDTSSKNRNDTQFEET

[18] = Mutagenicity in Salmonella typhimurium TA98 by mini-Ames test; type: toxicity; settings: salmonella enterica subsp. enterica serovar typhimurium
CT26 = experiment: Cytotoxicity against mouse CT26 cells assessed as effect on cell viability at 0.07 to 150 uM incubated for 48 hrs by CCK-8 assay; type: functional, cell-based; settings: dose 0.07-150 µM
[19] = target: Voltage-gated inwardly rectifying potassium channel KCNH2 (Homo sapiens, UniProt Q12809); experiment: Inhibition of hERG upto 30 uM; type: toxicity
Voltage-gated inwardly rectifying potassium channel KCNH2, sequence (Q12809 whole entry): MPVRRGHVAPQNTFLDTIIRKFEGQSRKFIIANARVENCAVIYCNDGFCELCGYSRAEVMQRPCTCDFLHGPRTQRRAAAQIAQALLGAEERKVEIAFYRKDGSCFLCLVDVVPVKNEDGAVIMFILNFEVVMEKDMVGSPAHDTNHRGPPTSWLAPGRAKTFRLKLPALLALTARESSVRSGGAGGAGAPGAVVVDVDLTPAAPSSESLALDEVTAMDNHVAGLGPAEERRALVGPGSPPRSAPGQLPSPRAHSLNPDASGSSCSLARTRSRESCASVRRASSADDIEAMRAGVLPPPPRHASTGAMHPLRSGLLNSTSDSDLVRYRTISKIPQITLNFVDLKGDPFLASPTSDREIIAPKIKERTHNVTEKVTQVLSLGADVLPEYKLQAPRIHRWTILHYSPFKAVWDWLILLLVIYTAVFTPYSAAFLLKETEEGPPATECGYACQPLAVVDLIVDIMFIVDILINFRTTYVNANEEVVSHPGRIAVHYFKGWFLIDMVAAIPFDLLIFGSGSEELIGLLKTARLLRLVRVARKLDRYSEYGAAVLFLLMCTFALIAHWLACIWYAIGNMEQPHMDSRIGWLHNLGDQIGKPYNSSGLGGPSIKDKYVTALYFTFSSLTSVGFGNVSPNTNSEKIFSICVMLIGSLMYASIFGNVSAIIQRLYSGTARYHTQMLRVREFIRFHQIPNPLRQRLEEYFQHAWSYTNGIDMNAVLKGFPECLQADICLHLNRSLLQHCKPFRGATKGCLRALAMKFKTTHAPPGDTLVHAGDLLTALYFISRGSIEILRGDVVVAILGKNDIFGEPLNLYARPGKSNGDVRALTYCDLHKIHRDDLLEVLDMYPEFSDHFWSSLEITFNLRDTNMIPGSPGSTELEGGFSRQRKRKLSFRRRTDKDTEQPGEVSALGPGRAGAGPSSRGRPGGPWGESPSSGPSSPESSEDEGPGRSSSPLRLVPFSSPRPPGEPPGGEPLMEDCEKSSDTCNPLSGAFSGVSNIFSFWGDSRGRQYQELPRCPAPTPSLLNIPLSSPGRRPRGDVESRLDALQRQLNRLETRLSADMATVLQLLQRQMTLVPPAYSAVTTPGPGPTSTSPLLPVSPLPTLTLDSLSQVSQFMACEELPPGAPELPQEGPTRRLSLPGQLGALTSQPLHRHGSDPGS

PBMC [20] = experiment: Induction of antitumor immunity in human PBMC cells expressing PD-L1 assessed as increase in IL-2 expression incubated for 12 hrs by ELISA analysis; type: functional, cell-based; settings: dose 0.1-10 µM
MC-38 [21] = experiment: Cytotoxicity against mouse MC38 cells assessed as effect on cell viability at 0.07 to 150 uM incubated for 48 hrs by CCK-8 assay; type: functional, cell-based; settings: dose 0.07-150 µM
[22] = Half life in Sprague-Dawley rat at 50 mg/kg, po measured upto 24 hrs by LC-MS/MS analysis; type: ADME, organism-based; settings: in vivo
PBMC [23] = experiment: Induction of antitumor immunity in human PBMC cells expressing PD-L1 assessed as increase in IFN-gamma expression incubated for 12 hrs by ELISA analysis; type: functional, cell-based; settings: dose 0.1-10 µM
CHO-K1 [24] = experiment: Reduction in cell surface PD-L1 expression in CHO-K1 cells expressing aAPC at 10 uM incubated for 24 hrs by immunofluorescence based microscopic analysis; type: functional; settings: Cricetulus griseus
CHO-K1 [25] = experiment: Induction of PD-L1 internalization in CHO-K1 cells assessed as increase in PD-L1 concentration in cytoplasm at 10 uM incubated for 12 hrs by DIL-staining based confocal microscopic analysis analysis; type: functional, cell-based; settings: Cricetulus griseus
[26] = Tmax in Sprague-Dawley rat at 50 mg/kg, po measured upto 24 hrs by LC-MS/MS analysis; type: ADME, organism-based; settings: in vivo
[27] = target: T2, Programmed cell death protein 1/Programmed cell death 1 ligand 1; experiment: as §1; type: cell-based; settings: cho-k1

Work on CCN(CC)CCCOc1cccc(-c2cccc(COc3cc(OCc4ccc5nonc5c4)c(CN[C@H](CO)C(=O)O)cc3Cl)c2Cl)c1 yielded an IC50 [1] of 78.3 nM.
Compound COP(=O)(NCCCOc1cccc(-c2cccc(COc3cc(OCc4ccc5nonc5c4)c(CN[C@H](CO)C(=O)O)cc3Cl)c2Cl)c1)OC has an IC50 [1] of 746 nM.
Compound O=C(O)[C@@H](CO)NCc1cc(Cl)c(OCc2cccc(-c3cccc(OCCCNCCO)c3)c2Cl)cc1OCc1ccc2nonc2c1 has an IC50 [1] of 6.1 nM.
Work on O=C(O)[C@@H](CO)NCc1cc(Cl)c(OCc2cccc(-c3cccc(OCCCCN4CCC(O)CC4)c3)c2Cl)cc1OCc1ccc2nonc2c1 yielded an IC50 [1] of 3.3 nM.
O=C(O)[C@@H](CO)NCc1cc(Cl)c(OCc2cccc(-c3cccc(OCCCNS(=O)(=O)N4CCOCC4)c3)c2Cl)cc1OCc1ccc2nonc2c1 showed an IC50 [1] of 87.6 nM.
With O=C(O)[C@@H](CO)NCc1cc(Cl)c(OCc2cccc(-c3cccc(OCCCCN4CCNCC4)c3)c2Cl)cc1OCc1ccc2nonc2c1 the IC50 [1] was 42.1 nM.
For O=C(O)[C@@H](CO)NCc1cc(Cl)c(OCc2cccc(-c3cccc(OCCCN(CCO)CCO)c3)c2Cl)cc1OCc1ccc2nonc2c1, the Activity (CHO-K1 [2]) was “Non-Toxic”, the IC50 [1] was 5.4 nM and the EC50 [3] was 353 nM. The Activity [4] was 2 RLU, the inhibition [5] was “inactive” and the Activity (Jurkat) was “Active”. For the same compound, the Kd [6] was 34.1 nM.
For O=C(O)[C@@H](CO)NCc1cc(Cl)c(OCc2cccc(-c3cccc(OCCCN4CCOCC4)c3)c2Cl)cc1OCc1ccc2nonc2c1, the IC50 [1] was 34.7 nM.
For O=C(O)[C@@H](CO)NCc1cc(Cl)c(OCc2cccc(-c3cccc(OCCN4CCOCC4)c3)c2Cl)cc1OCc1ccc2nonc2c1, the IC50 [1] was 121 nM.
For O=C(O)C1CCN(CCCCOc2cccc(-c3cccc(COc4cc(OCc5ccc6nonc6c5)c(CN[C@H](CO)C(=O)O)cc4Cl)c3Cl)c2)CC1, the IC50 [1] was 8.8 nM.
With O=C(O)[C@@H](CO)NCc1cc(Cl)c(OCc2cccc(-c3ccccc3)c2Br)cc1OCc1ccc2nonc2c1 [listing 1 of 3 here] the inhibition in vivo at 5 mg/kg (MC-38 [7]) was 52.5%.
Work on O=C(O)[C@@H](CO)NCc1cc(Cl)c(OCc2cccc(-c3cccc(OCCN(CCO)CCO)c3)c2Cl)cc1OCc1ccc2nonc2c1 yielded an IC50 [1] of 109 nM.
Compound O=C(O)[C@@H](CO)NCc1cc(Cl)c(OCc2cccc(-c3cccc(OCCCN4CCOCC4)c3)c2F)cc1OCc1ccc2nonc2c1 has an IC50 [1] of 12.5 nM.
Work on O=C(O)[C@@H](CO)NCc1cc(Cl)c(OCc2cccc(-c3cccc(OCCCCN4CCOCC4)c3)c2F)cc1OCc1ccc2nonc2c1 yielded an IC50 [1] of 21.2 nM.
O=C(O)[C@@H](CO)NCc1cc(Cl)c(OCc2cccc(-c3cccc(OCCCCN4CCC(CO)CC4)c3)c2Cl)cc1OCc1ccc2nonc2c1 gave an IC50 [1] of 3.5 nM.
With O=C(O)[C@@H](CO)NCc1cc(Cl)c(OCc2cccc(-c3ccccc3)c2Br)cc1OCc1ccc2nonc2c1 [listing 2 of 3 here] the Activity (CHO-K1 [2]) was “Non-Toxic”.
For O=C(O)[C@@H](CO)NCc1cc(Cl)c(OCc2cccc(-c3cccc(OCCCCN4CCC(O)CC4)c3)c2F)cc1OCc1ccc2nonc2c1, the IC50 [1] was 3.1 nM.
In the case of O=C(O)[C@@H](CO)NCc1cc(Cl)c(OCc2cccc(-c3ccccc3)c2Br)cc1OCc1ccc2nonc2c1 [listing 3 of 3 here], the Activity [4] is reported as 1.8 RLU, the inhibition [5] is reported as “inactive” and the Activity (Jurkat) is reported as “Active”.
In the case of O=C(O)[C@@H](CO)NCc1cc(Cl)c(OCc2cccc(-c3cccc(OCCCN4CCC(O)CC4)c3)c2Cl)cc1OCc1ccc2nonc2c1, the Activity (CHO-K1 [2]) is reported as “Non-Toxic”, the IC50 [1] is reported as 2.02 nM and the EC50 [3] is reported as 158 nM. The Activity [4] was 2.2 RLU, the inhibition [5] was “inactive” and the Activity (Jurkat) was “Active”. The Kd [6] was 22.9 nM.
In the case of O=C(O)[C@@H](CO)NCc1cc(Cl)c(OCc2cccc(-c3cccc(OCCCCN(CCO)CCO)c3)c2Cl)cc1OCc1ccc2nonc2c1, the IC50 [1] is reported as 8.2 nM.
O=C(O)[C@@H](CO)NCc1cc(Cl)c(OCc2cccc(-c3cccc(OCCCNCCN4CCCCC4)c3)c2Cl)cc1OCc1ccc2nonc2c1 gave an IC50 [1] of 23.8 nM.
In the case of O=C(O)[C@@H](CO)NCc1cc(Cl)c(OCc2cccc(-c3cccc(OCCCN4CCC(O)CC4)c3)c2F)cc1OCc1ccc2nonc2c1, the Activity [8] is reported as “Non-Toxic”, the half-life [9] is reported as 1.95 h and the logD [10] is reported as 0.67. The Activity (CHO-K1 [11]) was “Dose-Dependent Effect”, the Activity (CHO-K1 [2]) was “Non-Toxic” and the IC50 [1] was 13 nM. It also gave an EC50 [3] of 153 nM, a Cmax [12] of 45.6 ng/mL and an Activity [4] of 2.3 RLU. The AUC(0-t) at 24 h [13] was 82.1 ng·h/mL, the inhibition [5] was “inactive” and the Activity (CHO-K1 [14]) was “Active”. The Activity (PBMC [15]) was “inactive”, the solubility [16] was 23.6 µM (≈ 17.4 µg/mL) and the Kd [17] was 31.8 nM. For the same compound, the Activity [18] was “Non-Toxic”, the Activity (CT26) was “inactive” and the “inhibition (INH)” value [19] was “Not Active”. The Activity (PBMC [20]) was “Dose-Dependent Effect”, the Activity (Jurkat) was “Active” and the Activity (MC-38 [21]) was “inactive”. The half-life [22] was 5.3 h, the Kd [6] was 2 nM and the Activity (PBMC [23]) was “Dose-Dependent Effect”. The Activity (CHO-K1 [24]) was “Active”, the Activity (CHO-K1 [25]) was “Active” and the Tmax [26] was 6 min.
O=C(O)[C@@H](CO)NCc1cc(Cl)c(OCc2cccc(-c3cccc(OCCN4CCC(O)CC4)c3)c2Cl)cc1OCc1ccc2nonc2c1 showed an IC50 [1] of 40.5 nM.
In the case of CCN(CC)C(=O)CCOc1cccc(-c2cccc(COc3cc(OCc4ccc5nonc5c4)c(CN[C@H](CO)C(=O)O)cc3Cl)c2Cl)c1, the Activity (CHO-K1 [2]) is reported as “Non-Toxic”, the IC50 [1] is reported as 187 nM and the EC50 [27] is reported as “Not Active”. For the same compound, the Activity (Jurkat) was “Active”.
